The results in this text go back to PMC7026418, “The kinase polypharmacology landscape of clinical PARP inhibitors” (Scientific Reports, 2020).

Each structure is given as a SMILES string. Like-named read-outs stand apart in the source and are kept apart here.

Among the targets are ACVRL1 (Homo sapiens, UniProt P37023); MTOR (Homo sapiens, UniProt P42345); FLT1 (Homo sapiens, UniProt P17948).
What all share (assay): biochemical
Holding throughout (set-up): DiscoveRx KINOMEscan active site-directed competition binding; percent of control kinase bound to immobilised ligand

Another assay has as its target T1, ULK1 (Homo sapiens, UniProt O75385).
T1 sequence (O75385 1-1050): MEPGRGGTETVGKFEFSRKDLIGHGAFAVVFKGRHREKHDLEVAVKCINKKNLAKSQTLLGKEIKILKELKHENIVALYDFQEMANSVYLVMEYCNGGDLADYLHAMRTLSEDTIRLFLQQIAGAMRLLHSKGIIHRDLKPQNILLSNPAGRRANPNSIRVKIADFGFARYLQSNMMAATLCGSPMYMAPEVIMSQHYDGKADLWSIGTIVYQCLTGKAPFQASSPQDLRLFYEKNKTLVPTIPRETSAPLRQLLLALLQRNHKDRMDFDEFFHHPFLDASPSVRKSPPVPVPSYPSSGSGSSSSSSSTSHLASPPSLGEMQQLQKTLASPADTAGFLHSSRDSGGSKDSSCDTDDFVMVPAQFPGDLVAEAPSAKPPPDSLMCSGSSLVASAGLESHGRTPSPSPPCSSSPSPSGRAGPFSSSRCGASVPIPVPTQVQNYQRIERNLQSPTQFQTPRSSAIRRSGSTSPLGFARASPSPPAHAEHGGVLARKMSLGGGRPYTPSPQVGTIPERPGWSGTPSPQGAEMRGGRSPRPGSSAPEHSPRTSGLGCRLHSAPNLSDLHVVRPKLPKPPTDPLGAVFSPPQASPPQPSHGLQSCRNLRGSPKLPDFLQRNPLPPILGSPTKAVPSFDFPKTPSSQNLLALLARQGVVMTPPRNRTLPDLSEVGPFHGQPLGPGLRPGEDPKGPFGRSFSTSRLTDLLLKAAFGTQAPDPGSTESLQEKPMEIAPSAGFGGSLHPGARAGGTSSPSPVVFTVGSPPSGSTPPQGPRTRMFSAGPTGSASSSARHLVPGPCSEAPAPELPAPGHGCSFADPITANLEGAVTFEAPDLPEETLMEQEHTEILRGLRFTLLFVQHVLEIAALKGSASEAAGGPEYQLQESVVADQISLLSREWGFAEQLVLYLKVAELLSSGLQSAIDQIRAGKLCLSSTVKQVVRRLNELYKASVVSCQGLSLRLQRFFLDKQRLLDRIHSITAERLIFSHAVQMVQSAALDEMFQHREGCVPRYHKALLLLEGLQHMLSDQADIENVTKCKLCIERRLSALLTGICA

Another assay concerns the target T2, PRKCI (Homo sapiens, UniProt P41743).
T2 sequence (P41743 1-596): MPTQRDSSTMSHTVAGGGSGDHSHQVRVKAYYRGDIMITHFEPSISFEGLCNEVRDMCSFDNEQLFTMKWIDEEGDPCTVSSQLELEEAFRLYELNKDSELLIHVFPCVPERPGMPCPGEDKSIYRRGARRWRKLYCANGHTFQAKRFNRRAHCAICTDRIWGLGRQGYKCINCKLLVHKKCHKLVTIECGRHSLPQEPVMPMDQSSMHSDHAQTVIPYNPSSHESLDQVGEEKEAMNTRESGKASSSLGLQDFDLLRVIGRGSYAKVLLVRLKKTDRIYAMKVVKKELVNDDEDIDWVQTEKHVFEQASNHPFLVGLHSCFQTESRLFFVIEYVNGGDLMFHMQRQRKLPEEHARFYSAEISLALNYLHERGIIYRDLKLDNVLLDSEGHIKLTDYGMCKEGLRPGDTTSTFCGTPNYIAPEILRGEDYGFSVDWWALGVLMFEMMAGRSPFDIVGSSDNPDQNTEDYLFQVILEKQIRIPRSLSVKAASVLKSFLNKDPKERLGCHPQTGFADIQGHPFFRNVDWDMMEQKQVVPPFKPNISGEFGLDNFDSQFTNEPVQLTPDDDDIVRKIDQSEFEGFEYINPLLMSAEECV

A further assay deals with T3, PFTK1 (Homo sapiens, UniProt O94921).
T3 construct: gene CDK14

Setting [1] is: read-out: Rucaparib / %Ctrl @ 10000nM, binding competition, % of control.
Setting [2] is: read-out: Talazoparib (BMN 673) / %Ctrl @ 10000nM.
[3] abbreviates: read-out: Niraparib (MK-4827) / %Ctrl @ 10000nM.
Where [4] appears, read: read-out: Olaparib / %Ctrl @ 10000nM.

T3 sequence (O94921 whole entry): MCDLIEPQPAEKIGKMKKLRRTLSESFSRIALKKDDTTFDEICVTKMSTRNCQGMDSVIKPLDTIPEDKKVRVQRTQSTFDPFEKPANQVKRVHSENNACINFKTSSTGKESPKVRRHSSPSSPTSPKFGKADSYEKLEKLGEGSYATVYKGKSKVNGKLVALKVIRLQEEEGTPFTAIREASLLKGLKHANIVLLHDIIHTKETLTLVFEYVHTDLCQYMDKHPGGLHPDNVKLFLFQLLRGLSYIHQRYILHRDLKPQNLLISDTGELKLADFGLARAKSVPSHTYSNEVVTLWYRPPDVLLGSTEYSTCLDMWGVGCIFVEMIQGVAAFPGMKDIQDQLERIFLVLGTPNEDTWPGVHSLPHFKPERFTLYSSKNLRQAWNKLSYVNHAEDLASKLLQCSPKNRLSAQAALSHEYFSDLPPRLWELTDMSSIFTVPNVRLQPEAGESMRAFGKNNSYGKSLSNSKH
Sequence of FLT1 (P17948 whole entry): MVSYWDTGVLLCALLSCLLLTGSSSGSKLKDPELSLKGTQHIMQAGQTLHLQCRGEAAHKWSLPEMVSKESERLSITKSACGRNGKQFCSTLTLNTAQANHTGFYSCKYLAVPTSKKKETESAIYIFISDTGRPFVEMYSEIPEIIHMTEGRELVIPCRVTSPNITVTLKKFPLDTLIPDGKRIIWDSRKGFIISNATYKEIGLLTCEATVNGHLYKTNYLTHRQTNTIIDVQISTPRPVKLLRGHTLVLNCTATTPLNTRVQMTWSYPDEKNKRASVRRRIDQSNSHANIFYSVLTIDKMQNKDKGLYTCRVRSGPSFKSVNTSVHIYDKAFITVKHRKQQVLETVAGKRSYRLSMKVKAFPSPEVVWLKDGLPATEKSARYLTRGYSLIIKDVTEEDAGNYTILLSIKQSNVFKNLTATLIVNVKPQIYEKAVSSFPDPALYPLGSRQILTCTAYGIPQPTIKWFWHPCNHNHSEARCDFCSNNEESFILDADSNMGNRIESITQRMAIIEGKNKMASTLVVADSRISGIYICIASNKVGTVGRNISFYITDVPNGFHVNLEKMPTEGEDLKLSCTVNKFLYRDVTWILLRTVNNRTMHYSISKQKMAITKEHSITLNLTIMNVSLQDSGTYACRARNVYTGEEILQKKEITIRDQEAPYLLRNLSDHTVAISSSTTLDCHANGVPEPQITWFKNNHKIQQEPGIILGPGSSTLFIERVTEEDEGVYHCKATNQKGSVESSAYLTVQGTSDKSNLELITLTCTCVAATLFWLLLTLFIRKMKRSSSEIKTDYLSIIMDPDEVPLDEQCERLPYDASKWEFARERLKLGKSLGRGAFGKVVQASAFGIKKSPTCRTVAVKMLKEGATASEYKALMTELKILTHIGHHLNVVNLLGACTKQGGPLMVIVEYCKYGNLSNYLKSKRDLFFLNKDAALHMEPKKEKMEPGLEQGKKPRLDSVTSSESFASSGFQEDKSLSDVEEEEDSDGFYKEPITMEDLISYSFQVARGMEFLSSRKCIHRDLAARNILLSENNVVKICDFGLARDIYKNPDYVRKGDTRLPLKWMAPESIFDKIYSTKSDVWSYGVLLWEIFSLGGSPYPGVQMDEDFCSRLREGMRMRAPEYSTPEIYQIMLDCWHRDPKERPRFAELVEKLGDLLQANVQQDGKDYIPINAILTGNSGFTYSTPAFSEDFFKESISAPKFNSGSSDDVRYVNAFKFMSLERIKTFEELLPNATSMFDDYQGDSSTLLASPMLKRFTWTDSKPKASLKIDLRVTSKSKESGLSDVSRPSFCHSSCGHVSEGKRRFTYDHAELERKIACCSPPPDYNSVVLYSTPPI
Sequence of ACVRL1 (P37023 whole entry): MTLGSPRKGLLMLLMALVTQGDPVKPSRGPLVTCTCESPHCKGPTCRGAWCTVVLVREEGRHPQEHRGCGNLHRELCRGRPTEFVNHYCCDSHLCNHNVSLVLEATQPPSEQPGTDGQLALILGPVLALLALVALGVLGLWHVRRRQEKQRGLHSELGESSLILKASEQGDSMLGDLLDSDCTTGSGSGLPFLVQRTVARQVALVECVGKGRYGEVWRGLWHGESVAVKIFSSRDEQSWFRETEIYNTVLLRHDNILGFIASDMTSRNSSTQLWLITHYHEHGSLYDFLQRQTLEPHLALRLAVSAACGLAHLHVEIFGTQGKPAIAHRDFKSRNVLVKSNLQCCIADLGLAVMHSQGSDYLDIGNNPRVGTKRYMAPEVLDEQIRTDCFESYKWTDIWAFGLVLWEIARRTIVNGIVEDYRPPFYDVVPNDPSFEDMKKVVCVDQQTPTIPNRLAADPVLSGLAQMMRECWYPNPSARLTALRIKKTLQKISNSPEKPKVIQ

Turning to `CNCc1ccc(-c2[nH]c3cc(F)cc4c3c2CCNC4=O)cc1` [Rucaparib], the percent of control binding at 10 µM was 64% at ULK1 (setting [1]); 100% at ACVRL1 (setting [1]); 96% on MTOR (setting [1]); 72% on PRKCI (setting [1]); 93% at FLT1 (setting [1]); 86% on PFTK1 (setting [1]).
On to `Cn1ncnc1[C@H]1c2n[nH]c(=O)c3cc(F)cc(c23)N[C@@H]1c1ccc(F)cc1` [Talazoparib], for which the percent of control binding at 10 µM on ULK1 (setting [2]) worked out at 94%; on ACVRL1 (setting [2]), 84%; at MTOR (setting [2]), 35%; at PRKCI (setting [2]), 78%; at FLT1 (setting [2]) it was 100%; on PFTK1 (setting [2]), 89%.
Turning to `NC(=O)c1cccc2cn(-c3ccc([C@@H]4CCCNC4)cc3)nc12` [Niraparib], the percent of control binding at 10 µM at ULK1 (setting [3]) was 100%; at ACVRL1 (setting [3]), 98%; at MTOR (setting [3]), 85%; on PRKCI (setting [3]), 85%; at FLT1 (setting [3]) it was 100%; at PFTK1 (setting [3]), 88%.
As for `O=C(c1cc(Cc2n[nH]c(=O)c3ccccc23)ccc1F)N1CCN(C(=O)C2CC2)CC1` [Olaparib], the percent of control binding at 10 µM at ULK1 (setting [4]) came to 83%; at ACVRL1 (setting [4]), 97%; on MTOR (setting [4]) it was 94%; on PRKCI (setting [4]), 100%; at FLT1 (setting [4]), 99%; on PFTK1 (setting [4]), 100%.
